Here are results for 26 compounds from US10174007B2, “Substituted 3-azabicyclo[3.1.0]hexanes as ketohexokinase inhibitors” (Pfizer Inc., priority 2015, dated 2019).

Where two headings read alike, the source gives them in different places.

This test deals with KHK-C (Homo sapiens (Human), UniProt P50053). Nature of the test: Assay A: coupled-enzyme KHK absorbance assay, 10 nM KHK-C.
The mark [1] stands for this setting: read-out: IC50 (nM) Assay A (Table 4), 10 nM KHK-C, 0.8 mM fructose, 0.2 mM ATP, avg of (#) runs.
The mark [2] stands for this setting: read-out: IC50 (nM) Assay A 10 nM KHK-C, 10 nM KHK-C, 0.8 mM fructose, 0.2 mM ATP, avg of (#) runs.

KHK-C, sequence (P50053 whole entry): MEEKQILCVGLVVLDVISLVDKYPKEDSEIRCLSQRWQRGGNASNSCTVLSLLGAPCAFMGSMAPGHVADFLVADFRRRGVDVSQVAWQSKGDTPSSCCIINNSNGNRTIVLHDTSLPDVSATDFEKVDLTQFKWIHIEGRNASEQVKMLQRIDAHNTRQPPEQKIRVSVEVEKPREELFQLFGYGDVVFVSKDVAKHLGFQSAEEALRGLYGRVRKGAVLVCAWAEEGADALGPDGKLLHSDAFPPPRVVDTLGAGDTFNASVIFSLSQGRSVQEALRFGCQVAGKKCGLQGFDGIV
Excerpt: A screening assay was developed for KHK involving a coupled enzyme system which used the product of the KHK reaction to drive an absorbance signal in kinetic mode. KHK takes fructose and ATP and converts it to F1P and ADP. ADP then serves as substrate to pyruvate kinase which converts PEP to pyruvate which is then reduced to lactate by lactate dehydrogenase with the concomitant oxidation of NADH to NAD+. The resulting depletion of NADH was monitored by measuring absorbance at 340 nm.
Recombinant human KHK-C and KHK-A were expressed in E. coli as a His-tagged fusion protein and purified using Ni-NTA chromatography.
Compounds were prepared in DMSO as 4 mM stocks, diluted using an 11-point half-log scheme on a Biomek FX (Beckman Coulter), and incubated at rt for 30 minutes with the reaction mixture containing 50 mM HEPES, pH 7.4, 140 mM KCl, 3.5 mM MgCl2, 0.8 mM fructose, 2 mM TCEP, 0.8 mM PEP, 0.7 mM NADH, 0.01% Triton X-100, 30 U/mL pyruvate kinase-lactate dehydrogenase, and 10 nM purified KHK-C. The compound concentration in each well ranged from 1 nM to 100 μM. The reaction was initiated with the addition of 0.2 mM ATP. The absorbance was measured for 30 minutes on a SpectraMax reader (Molecular Devices) after ATP was added. The concentrations provided are based on the final mixture volume of 40 μL (referred to as the final concentration).
Controls: N8-(cyclopropylmethyl)-N4-(2-(methylthio)phenyl)-2-(piperazin-1-yl)pyrimido[5,4-d]pyrimidine-4,8-diamine at 2 μM final concentration was used as high percent effect (HPE) control, and 2.5% DMSO which was present in all reaction wells was used as zero percent effect (ZPE) control. Reaction rates were obtained for 300-1800 seconds time window in units of 1000*AU/min (absorbance unit per minute), and average values for ZPE and HPE controls from 16 wells each were calculated, AveZPE and AveHPE, respectively.
Percent inhibition (% inhibition) was calculated for each well using this equation:
For each compound tested, the IC50 provided is the average based on at least two separate assays conducted on separate days.

As to `C[C@H]1C[C@H](O)CN1c1nc(N2C[C@@H]3[C@@H](CC(=O)O)[C@@H]3C2)c(Cl)c(C(F)(F)F)n1` [Example 35, [(1R,5S,6R)-3-{5-chloro-2-[(2S,4S)-4-hydroxy-2-methylpyrrolidin-1-yl]-6-(trifluoromethyl)pyrimidin-4-yl}-3-azabicyclo[3.1.0]hex-6-yl]acetic acid], the IC50 – broadly, the concentration that gives 50% inhibition – under setting [1] was 188 nM.
The same measure, in the same setting: with `C[C@H]1C[C@H](O)CN1c1nc(N2C[C@@H]3[C@@H](CC(=O)O)[C@@H]3C2)cc(C(F)(F)F)c1C#N` [Example 23, [(1R,5S,6R)-3-{5-cyano-6-[(2S,4S)-4-hydroxy-2-methylpyrrolidin-1-yl]-4-(trifluoromethyl)pyridin-2-yl}-3-azabicyclo[3.1.0]hex-6-yl]acetic acid] the figure was 11.6 nM.
On the same count and under the same terms, with `C[C@H]1[C@H](O)CN1c1nc(N2C[C@@H]3[C@@H](CCC(=O)O)[C@@H]3C2)cc(C(F)(F)F)c1C#N` [Example 52, 3-[(1R,5S,6R)-3-{5-cyano-6-[(2S,3R)-3-hydroxy-2-methylazetidin-1-yl]-4-(trifluoromethyl)pyridin-2-yl}-3-azabicyclo[3.1.0]hex-6-yl]propanoic acid] the figure was 82.5 nM.
On to `O=C(O)C[C@@H]1[C@H]2CN(c3cc(C(F)(F)F)nc(C4CCC4)n3)C[C@@H]12` [Example 6, {(1R,5S,6s)-3-[2-cyclobutyl-6-(trifluoromethyl)pyrimidin-4-yl]-3-azabicyclo[3.1.0]hex-6-yl}acetic acid], for which the IC50 under setting [2] was found to be 170 nM.
Take `Cc1c(C(F)F)nc(N2C[C@@H](O)[C@@H]2C)nc1N1C[C@@H]2[C@@H](CC(=O)O)[C@@H]2C1` [Example 20, [(1R,5S,6R)-3-{6-(difluoromethyl)-2-[(2S,3R)-3-hydroxy-2-methylazetidin-1-yl]-5-methylpyrimidin-4-yl}-3-azabicyclo[3.1.0]hex-6-yl]acetic acid]: the IC50 under setting [1] was 33.4 nM.
Still for that read-out and setting: with `C[C@H]1[C@H](O)CN1c1nc(N2C[C@@H]3[C@@H](CC(=O)O)[C@@H]3C2)cc(C(C)(F)F)n1` [Example 17, [(1R,5S,6R)-3-{6-(1,1-difluoroethyl)-2-[(2S,3R)-3-hydroxy-2-methylazetidin-1-yl]pyrimidin-4-yl}-3-azabicyclo[3.1.0]hex-6-yl]acetic acid] the figure was 131 nM; with `N#Cc1c(C(F)F)cc(N2C[C@@H]3[C@@H](CC(=O)O)[C@@H]3C2)nc1N1CCCC1` [Example 37, {(1R,5S,6s)-3-[5-cyano-4-(difluoromethyl)-6-(pyrrolidin-1-yl)pyridin-2-yl]-3-azabicyclo[3.1.0]hex-6-yl}acetic acid], 58.3 nM; with `C[C@H]1[C@H](O)CN1c1nc(N2C[C@@H]3[C@@H](CC(=O)O)[C@@H]3C2)c(Cl)c(C(C)(F)F)n1` [Example 18, [(1R,5S,6R)-3-{5-chloro-6-(1,1-difluoroethyl)-2-[(2S,3R)-3-hydroxy-2-methylazetidin-1-yl]pyrimidin-4-yl}-3-azabicyclo[3.1.0]hex-6-yl]acetic acid], 16.7 nM.
Still for that read-out and setting: the same measure for `C[C@H]1[C@H](O)CN1c1nc(N2C[C@@H]3[C@@H](CC(=O)O)[C@@H]3C2)c(C#N)c(C(F)(F)F)n1` [Example 53, [(1R,5S,6R)-3-{5-cyano-2-[(2S,3R)-3-hydroxy-2-methylazetidin-1-yl]-6-(trifluoromethyl)pyrimidin-4-yl}-3-azabicyclo[3.1.0]hex-6-yl]acetic acid]: 21 nM.
`C[C@@H]1N(c2nc(N3C[C@@H]4[C@H](C3)[C@H]4CS(C)(=O)=O)cc(C(F)(F)F)n2)C[C@@]1(C)O` [Example 9, (2S,3R)-2,3-dimethyl-1-[4-{(1R,5S,6s)-6-[(methylsulfonyl)methyl]-3-azabicyclo[3.1.0]hex-3-yl}-6-(trifluoromethyl)pyrimidin-2-yl]azetidin-3-ol] gave an IC50 of 14400 nM.
Take `C[C@H]1[C@H](O)CN1c1cc(N2C[C@@H]3[C@@H](CC(=O)O)[C@@H]3C2)cc(C(C)(F)F)n1` [Example 34, [(1R,5S,6R)-3-{2-(1,1-difluoroethyl)-6-[(2S,3R)-3-hydroxy-2-methylazetidin-1-yl]pyridin-4-yl}-3-azabicyclo[3.1.0]hex-6-yl]acetic acid]: under setting [1], the IC50 was 331 nM.
As for `C[C@@H]1N(c2nc(N3C[C@@H]4[C@@H](CC(=O)O)[C@@H]4C3)cc(C(F)F)c2C#N)C[C@@]1(C)O` [Example 55, [(1R,5S,6R)-3-{5-cyano-4-(difluoromethyl)-6-[(2S,3R)-3-hydroxy-2,3-dimethylazetidin-1-yl]pyridin-2-yl}-3-azabicyclo[3.1.0]hex-6-yl]acetic acid], under setting [1], the IC50 is 13.7 nM.
Still for that read-out and setting: with `Cc1c(N2C[C@@H]3[C@@H](CC(=O)O)[C@@H]3C2)nc(N2CC[C@@H]2C)nc1C(C)(F)F` [Example 44, [(1R,5S,6R)-3-{6-(1,1-difluoroethyl)-5-methyl-2-[(2S)-2-methylazetidin-1-yl]pyrimidin-4-yl}-3-azabicyclo[3.1.0]hex-6-yl]acetic acid] the figure was 51.4 nM.
As to `COC(=O)C[C@@H]1[C@H]2CN(c3cc(C(F)(F)F)nc(N4CC[C@@H]4C)n3)C[C@@H]12` [Example 3, Methyl [(1R,5S,6R)-3-{2-[(2S)-2-methylazetidin-1-yl]-6-(trifluoromethyl)pyrimidin-4-yl}-3-azabicyclo[3.1.0]hex-6-yl]acetate], the IC50 turned out to be 3510 nM.
On to `C[C@H]1[C@H](O)CN1c1cc(N2C[C@@H]3[C@@H](CC(=O)O)[C@@H]3C2)cc(C(F)(F)F)n1` [Example 27, [(1R,5S,6R)-3-{2-[(2S,3R)-3-hydroxy-2-methylazetidin-1-yl]-6-(trifluoromethyl)pyridin-4-yl}-3-azabicyclo[3.1.0]hex-6-yl]acetic acid], for which, under setting [1], the concentration for half-maximal inhibition (IC50) came out at 109 nM.
`COc1c(C(F)F)nc(N2C[C@@H](O)[C@@H]2C)nc1N1C[C@@H]2[C@@H](CC(=O)O)[C@@H]2C1` [Example 29, [(1R,5S,6R)-3-{6-(difluoromethyl)-2-[(2S,3R)-3-hydroxy-2-methylazetidin-1-yl]-5-methoxypyrimidin-4-yl}-3-azabicyclo[3.1.0]hex-6-yl]acetic acid]: the IC50 under setting [1] worked out at 265 nM.
As for `C[C@H]1[C@H](O)CN1c1nc(C(F)F)c(C2CC2)c(N2C[C@@H]3[C@@H](CC(=O)O)[C@@H]3C2)n1` [Example 45, [(1R,5S,6R)-3-{5-cyclopropyl-6-(difluoromethyl)-2-[(2S,3R)-3-hydroxy-2-methylazetidin-1-yl]pyrimidin-4-yl}-3-azabicyclo[3.1.0]hex-6-yl]acetic acid], under setting [1], the IC50 was 238 nM.
With `C[C@H]1[C@H](O)CN1c1nc(C(F)F)c(Cl)c(N2C[C@@H]3[C@@H](CC(=O)O)[C@@H]3C2)n1` [Example 15, [(1R,5S,6R)-3-{5-chloro-6-(difluoromethyl)-2-[(2S,3R)-3-hydroxy-2-methylazetidin-1-yl]pyrimidin-4-yl}-3-azabicyclo[3.1.0]hex-6-yl]acetic acid], the IC50 under setting [1] was found to be 19.1 nM.
Same read-out and setting: the same measure for `O=C(O)C[C@@H]1[C@H]2CN(c3cc(C(F)(F)F)nc(N4CCC4)n3)C[C@@H]12` [Example 47, {(1R,5S,6s)-3-[2-(azetidin-1-yl)-6-(trifluoromethyl)pyrimidin-4-yl]-3-azabicyclo[3.1.0]hex-6-yl}acetic acid]: 619 nM; for `C[C@H]1[C@H](O)CN1c1nc(N2C[C@@H]3[C@@H](CC(=O)O)[C@@H]3C2)c(Cl)c(C(F)(F)F)n1` [Example 16, [(1R,5S,6R)-3-{5-chloro-2-[(2S,3R)-3-hydroxy-2-methylazetidin-1-yl]-6-(trifluoromethyl)pyrimidin-4-yl}-3-azabicyclo[3.1.0]hex-6-yl]acetic acid]: 6.4 nM.
On the same count and under the same terms, the same measure for `C[C@H]1[C@H](O)CN1c1nc(N2C[C@@H]3[C@@H](CC(=O)O)[C@@H]3C2)nc(C(F)(F)F)c1C#N` [Example 54, [(1R,5S,6R)-3-{5-cyano-4-[(2S,3R)-3-hydroxy-2-methylazetidin-1-yl]-6-(trifluoromethyl)pyrimidin-2-yl}-3-azabicyclo[3.1.0]hex-6-yl]acetic acid]: 19 nM.
The same measure, in the same setting: the same measure for `C[C@@H]1N(c2nc(N3C[C@@H]4[C@H](C3)[C@H]4CS(C)(=O)=O)c(Cl)c(C(F)(F)F)n2)C[C@@]1(C)O` [Example 48, (2S,3R)-1-[5-chloro-4-{(1R,5S,6S)-6-[(methylsulfonyl)methyl]-3-azabicyclo[3.1.0]hex-3-yl}-6-(trifluoromethyl)pyrimidin-2-yl]-2,3-dimethylazetidin-3-ol]: 1360 nM; for `Cc1c(N2C[C@@H]3[C@@H](CC(=O)O)[C@@H]3C2)nc(N2C[C@@H](O)[C@@H]2C)nc1C(C)(F)F` [Example 33, [(1R,5S,6R)-3-{6-(1,1-difluoroethyl)-2-[(2S,3R)-3-hydroxy-2-methylazetidin-1-yl]-5-methylpyrimidin-4-yl}-3-azabicyclo[3.1.0]hex-6-yl]acetic acid]: 114 nM.
For the compound `CC1CCCN1c1nc(N2C[C@@H]3[C@@H](CC(=O)O)[C@@H]3C2)cc(C(F)F)c1C#N` (stereo partly drawn) [Example 38, {(1R,5S,6s)-3-[5-cyano-4-(difluoromethyl)-6-(2-methylpyrrolidin-1-yl)pyridin-2-yl]-3-azabicyclo[3.1.0]hex-6-yl}acetic acid], the IC50 under setting [1] amounted to 25.3 nM.
For the compound `COc1c(N2C[C@@H]3[C@@H](CC(=O)O)[C@@H]3C2)nc(N2C[C@@H](O)[C@@H]2C)nc1C(F)(F)F` [Example 13, [(1R,5S,6R)-3-{2-[(2S,3R)-3-hydroxy-2-methylazetidin-1-yl]-5-methoxy-6-(trifluoromethyl)pyrimidin-4-yl}-3-azabicyclo[3.1.0]hex-6-yl]acetic acid], the IC50 under setting [2] stood at 33.9 nM.
Turning to `C[C@@H]1N(c2nc(N3C[C@@H]4[C@@H](CC(=O)O)[C@@H]4C3)c(Cl)c(C(F)F)c2C#N)C[C@@]1(C)O` [Example 21, [(1R,5S,6R)-3-{3-chloro-5-cyano-4-(difluoromethyl)-6-[(2S,3R)-3-hydroxy-2,3-dimethylazetidin-1-yl]pyridin-2-yl}-3-azabicyclo[3.1.0]hex-6-yl]acetic acid], the concentration for half-maximal inhibition (IC50) under setting [1] came out at 8.7 nM.
